Results on one compound are retold here after patent US20250387381A1, “COMPOSITIONS AND METHODS FOR ENHANCED DRUG LOADING OF LONG-ACTING IN SITU FORMING IMPLANTS AND USES THEREOF” (The University of North Carolina at Chapel Hill, priority 2022, published 2025).

Series [1] can be described thus: RFB saturated solubility in DMSO and NMP with or without amphiphilic additives. The conditions noted are these: for solubility at 1 day: organic solvent or mixture, thermodynamic from solid.
A further series relates to Mtb. The conditions noted are these: cited from earlier work.
For series [2] the following is noted: human, in vivo, po, 150 mg; cited from earlier work.
The nature of series [3]: Stability of LA-RFB formulations stored at room temperature in the dark. Type of series: physicochemical. The conditions noted are these: solution of RFB in DMSO without polymer, same storage.
Procedure: At predetermined time points (3, 4, 6, 9, 12, 15 months of incubation) 10 μL of formulation was diluted in 1 mL of DMSO, then further diluted at 1:1000 in DMSO for analysis by UV-vis absorbance spectrometer and HPLC to measure the drug concentration and drug degradation. As a control, RFB dissolved in DMSO (20 μg mL^−1 RFB solution) was incubated in the dark at RT.

Values after ≈ are worked out from the molar mass of the structure shown.

Regarding `CO[C@H]1/C=C/O[C@@]2(C)Oc3c(C)c(O)c4c(c3C2=O)C2=NC3(CCN(CC(C)C)CC3)NC2=C(NC(=O)/C(C)=C\C=C\[C@H](C)[C@H](O)[C@@H](C)[C@@H](O)[C@@H](C)[C@H](OC(C)=O)[C@@H]1C)C4=O` [RFB, Rifabutin], the “Highest RFB solubility in DMSO with Kolliphor HS 15” value in series [1] (0.45% Kolliphor HS 15) is given as 564±7 mg RFB per mL of DMSO. Also, the solubility – broadly, the concentration that dissolves in the medium under given conditions – at 1 day worked out at 702 ± 10 mg/mL (≈ 829 mM) in series [1] (Highest RFB solubility in NMP with Kolliphor HS 15, 8.8% Kolliphor HS 15); 202 ± 22 mg/mL (≈ 238 mM) in series [1] (RFB maximum solubility in DMSO, DMSO alone, room temperature, mean±SD); 148 ± 34 mg/mL (≈ 175 mM) in series [1] (RFB maximum solubility in NMP, NMP without additive, room temperature, mean±SD). The “RFB MIC” value in the series with Mtb was 0.064 µg/mL. The Cmax (commonly the peak of the concentration-time curve) in series [2] was 460 ng/mL. Also, the “Residual RFB after 3 months” value in series [3] is on record as 67%. The “Residual RFB after 4 months” value in series [3] is given as 53%. Also, in series [3], the “Residual RFB after 6 months” value is 25%.
